{"source": "patent US20080292580A1", "about": "“Treatment of Inflammatory Diseases” (UNIVERSITY COLLEGE LONDON HOSPITALS NHS FOUNDATION, priority 2004, published 2008)", "tested_on": "normal mice", "experiment": "Toxic effects of PEG-saline infusion in normal mice", "settings": "mouse, in vivo", "description": "In this example, the toxic effects of high molecular weight polyethylene glycol at high concentrations were compared to the effects of low molecular weight polyethylene glycol at even higher concentrations.\nNormal mice, which were not subjected to zymozan or lipopolysaccharide injections, were infused (25 ml/kg) with either PEG-200-saline solution at a PEG-200 concentration of 100 mg/ml or PEG-4000-saline solution at a PEG-4000 concentration of 30 mg/ml.", "data": [{"substance": "polyethylene glycol [PEG 200-saline]", "values": [{"measurement": "survival of normal mice", "value": "survived"}]}]}
